Measurements reported in patent publication US6710090B2, “Inhibitory or blocking agents of molecular generating and/or inducing functions” (priority 1994, dated 2004).

What was measured:
[1] = tested on: human blood coagulation and fibrin formation; experiment: Human blood coagulation and fibrin formation, thromboelastgram and scanning electron microscopy; format: biochemical
Experimental: Effect of Yoshixol (4 μl) on human blood coagulation and fibrin formation (thrombin was added to fibrinogen) were investigated by thromboelastgram (Hellige GMBH, West Germany). Also, a magnitude of fibrin network which is formed at human blood coagulation was investigated by a scanning electron microscopy. Coagulation of human blood without treatment with Yoshixol was started within 1-2 min so that maximum level of coagulation occurred approximately within 15 min, followed by gradual decrease due to activation of fibrinolytic system. Immediately after thrombin is added on fibrinogen, viscosity of the sample started to increase, reached to a maximum level within 5-6 minutes. This maximum level was maintained for periods of 6 hours which was observed (referred FIG. 3a). However, when Yoshixol (4 μl) was added in 0.4 ml of whole blood or fibrinogen (160 mg/dl), onset time of blood coagulation and fibrin formation was delayed to 4-5 minutes and maximum aggregation time was occurred within 6-8 minutes. Maximum level of coagulation after the treatment was inhibited by 90% of control which level was maintained over 6 hours of investigation (referred FIG. 3b).

[2] = tested on: anti-A blood serum, anti-B blood serum; experiment: Function of serum antibodies for ABO blood types; format: biochemical, human
Experimental: It is also known that antibody has a structure of Y shape which consists of 2 pairs of light chain and heavy chain in generally, and that the fundamental structure is maintained by S—S bond. Serum antibody reaction of ABO blood types is important historically to understand various kinds of antigen-antibody reactions. In this invention, effect of Yoshixol (4 μl) on the standard judgment of ABO blood types was investigated by using human blood of A type, B type and O type (400 μl, respectively).

[3] = tested on: atypical mycobacteria (Mycobacterium Rapid Grower); experiment: Anti-microbacterial effect on acid-fast bacteria; format: cell-based
[4] = tested on: E79 double-chained DNA phage; experiment: Effect on bacteriophage, numbers of plaques; format: cell-based, bacteriophage (indication bacteria pseudomonas aeruginosa)
Experimental: Yoshixol (4 μl) were added in 1 ml of phage solution (E79 double-chained DNA phage) which was adjusted on about 10^7 per 1 ml, and were mixed well. Then, 10 μl of the mixture sampled after 5, 10, 20, 30 minutes was diluted by quickly adding in 10 ml of medium, so that 100 μl of the phage-diluted solution put into the test tube as the upper plate with the warmed gelatin agar, which was mixed with 100 μl of the indication bacterial solution (pseudomonas aeruginosa) cultured for one night. Then, the adjusted solution of the phages in the test tube was dropped on the agar plate and, homogeneous surface of the upper agar plate was produced by smoothly rotating the plate on the table. After resting it on the table about 10 minute when multilayer gelatin agar sufficiently became solid, they were stocked into the incubator at 37° C. After one night incubation, numbers of plaques were counted. As a result, the numbers of plaques in the 5 min-treated phage solution, in 10 min-treated phage solution and in the […] phage solution with Yoshixol decreased to 33%, 15% and 6% of the plaques formation in the non-treated phage solution, respectively.

E. coli strain no. W3110 = experiment: Anti-microbacterial effect on E. Coli; format: cell-based; details: for colony formation unit (CFU): 2 μl per 1 ml of culture medium
[5] = beagles, oral 10 μl per body weight
[6] = beagles, oral 10 μl per body weight, 1 week
[7] = 50 μl in the whole space of the schale, indirect contact, 24 hours, 37° C.

C=C1CC(C)(C)C=CC1=O [Yoshixol, 4,4-dimethyl-6-methylene-2-cyclohexen-1-one]
maximum aggregation time ([1]; Yoshixol 4 μl in 0.4 ml whole blood or fibrinogen (160 mg/dl)): 6 to 8 min | onset time of blood coagulation and fibrin formation ([1]; Yoshixol 4 μl in 0.4 ml whole blood or fibrinogen (160 mg/dl), untreated blood 1-2 min): 4 to 5 min | inhibition of maximum level of coagulation ([1]; Yoshixol 4 μl in 0.4 ml, level maintained over 6 hours): 90 % of control | rouleaux formation of erythrocyte and formation of fibrin net ([1]; morphological investigation, scanning electron microscopy): did not occur | albumin/globulin ratio [5]: elevated 3 days after administration | creatinine phosphokinase [5]: fell | enzymes such as γ-GPT, GOT, GPT [5]: also fell | albumin level [6]: did not change | changes in concentration of total bilirubin, GOT, GPT, TTT, ZTT, cholinesterase, serum iron, potassium, sodium, chloride, inorganic phosphorus and calcium [6]: did not found | difference in concentration of total cholesterol and triglyceride between groups [6]: did not occur | level of uric acid (beagles, oral 10 μl per body weight, during the administration): maintained at lower level | total proteins in blood serum (beagles, oral 10 μl per body weight, recovery 1 week after stop): increased 3 days after administration | levels of nonproteins nitrogen and creatinine in the serum (beagles, oral 10 μl per body weight, since 1 day after administration): 70-80 % of the control | TTT and ZTT (dog, in vivo, po): did not show abnormal values | changes in numbers of red blood cells, white blood cells and platelets (dog, in vivo, po): did not found | primary structure of antiserums for ABO blood types (electrophoretic analysis) ([2]; after treatment of Yoshixol): any change in primary structure of antiserums did not find | blood aggregation in judgment of ABO blood type ([2]; antiserum treated with Yoshixol 4 μl, human blood A, B, O type 400 μl): any aggregation did not occur | proliferation with evaporating component of Yoshixol [3, 7]: did not occur | diameter of inhibition zone of proliferation ([3]; at 2 μl): 22 mm | dosage at which formation of inhibition zone of proliferation occurred ([3]; brain-heart infusion agar): 0.2 μl of Yoshixol per 1 ml of the culture medium | numbers of plaques, of the plaques formation in the non-treated phage solution ([4]; Yoshixol 4 μl in 1 ml phage solution (about 10^7 per ml), 5 min-treated): 33% | numbers of plaques, of the plaques formation in the non-treated phage solution ([4]; Yoshixol 4 μl in 1 ml phage solution, 10 min-treated): 15% | numbers of plaques, of the plaques formation in the non-treated phage solution ([4]; Yoshixol 4 μl in 1 ml phage solution, 15 min-treated): 6% | plaques formation ([4]; Yoshixol 4 μl in 1 ml phage solution, treated over 20 min): plaques formation did not find | colony formation unit (CFU) (E. coli strain no. W3110; after 1 hour cultured, initial 10^8): zero | colony formation unit (CFU) (E. coli strain no. W3110; after 24 hours, initial 10^8, control 10^10): zero | proliferation with evaporating component of Yoshixol (E. coli strain no. W3110; [7]): did not occur | histological aspect of cell death, scanning electron microscopy (E. coli strain no. W3110; final stage after Yoshixol): destroyed resulting in small particles
